Assays:
[1] = molecular target: T1, Lysine-specific demethylase 4C (Homo sapiens, UniProt Q9H3R0); assay: Inhibition of KDM4C (unknown origin) preincubated for 15 mins followed by histone substrate addition measured after 1 hr by alphascreen assay
T1 sequence (Q9H3R0 whole entry): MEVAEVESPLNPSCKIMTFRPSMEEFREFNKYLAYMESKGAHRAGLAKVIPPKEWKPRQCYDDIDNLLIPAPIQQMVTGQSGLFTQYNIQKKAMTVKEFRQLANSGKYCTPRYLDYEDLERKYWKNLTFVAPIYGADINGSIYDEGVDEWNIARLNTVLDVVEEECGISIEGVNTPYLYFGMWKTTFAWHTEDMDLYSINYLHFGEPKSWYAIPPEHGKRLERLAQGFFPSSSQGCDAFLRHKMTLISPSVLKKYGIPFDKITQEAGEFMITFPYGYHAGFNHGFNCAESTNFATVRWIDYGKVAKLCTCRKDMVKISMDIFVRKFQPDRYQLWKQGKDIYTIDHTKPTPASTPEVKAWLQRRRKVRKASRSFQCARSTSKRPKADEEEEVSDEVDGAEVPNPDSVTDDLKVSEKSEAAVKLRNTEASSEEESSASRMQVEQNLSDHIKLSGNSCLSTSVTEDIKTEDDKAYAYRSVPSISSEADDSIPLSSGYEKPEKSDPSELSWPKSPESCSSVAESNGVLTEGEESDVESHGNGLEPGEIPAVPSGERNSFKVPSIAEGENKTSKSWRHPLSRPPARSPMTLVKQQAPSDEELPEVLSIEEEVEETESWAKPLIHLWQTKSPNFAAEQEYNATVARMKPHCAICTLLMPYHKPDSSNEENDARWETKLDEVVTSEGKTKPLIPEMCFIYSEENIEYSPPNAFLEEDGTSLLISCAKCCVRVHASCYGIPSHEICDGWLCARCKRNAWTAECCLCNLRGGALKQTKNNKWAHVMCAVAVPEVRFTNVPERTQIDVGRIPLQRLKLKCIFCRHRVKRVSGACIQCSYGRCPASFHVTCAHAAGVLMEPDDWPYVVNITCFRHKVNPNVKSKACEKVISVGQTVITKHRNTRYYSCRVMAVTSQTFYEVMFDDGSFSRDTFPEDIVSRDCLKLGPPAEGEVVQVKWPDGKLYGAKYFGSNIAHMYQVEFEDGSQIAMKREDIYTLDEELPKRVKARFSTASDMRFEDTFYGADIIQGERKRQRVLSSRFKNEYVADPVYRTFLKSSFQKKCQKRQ

[2] = Antiproliferative activity against human SU-DHL6 cells assessed as reduction in cell viability after 120 hrs by ATPlite assay; format: functional, cell-based; settings: SU-DHL-6, 120 h

IC50 [1] [µM]	SMILES	EC50 [2] [µM]
5	Cc1ccsc1C(NC(=O)c1ccccc1)c1cc(Cl)c2cccnc2c1O (racemic)	–
–	CCN(CCN(C)C)C(=O)CNCc1cc(CNC(=O)C(F)(F)F)ccn1	< 0.25

Source: ChEMBL document CHEMBL3784917, “Recent Progress in Histone Demethylase Inhibitors” (J Med Chem, 2016)
